Test results reported in ChEMBL document CHEMBL1201862, “PubChem BioAssay data set” (2004).
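All cell lines were grown in 96-well plates and treated with compound for 48 hours. Abbreviation: GI50, concentration required for 50% inhibition of growth.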 Active and inactive are the calls of the source. Cut-off read from the data, not from the text of the source: active = GI50 up to about 1.1 µM and inactive = higher.

Key:
Assay in all cases: DTP human tumour cell line panel, 48 h
[1] = system: MOLT-4
[2] = system: HT-29
[3] = system: OVCAR-4
[4] = system: SK-MEL-2
[5] = system: HL-60
[6] = system: SW-620
[7] = system: HOP-92
[8] = system: HOP-62
[9] = system: KM12
[10] = system: PC-3
[11] = system: UACC-62
[12] = system: RPMI-8226
[13] = system: OVCAR-3
[14] = system: T47D
[15] = system: A549
[16] = system: HCT-116
[17] = system: HCT-15
[18] = system: MDA-MB-435
[19] = system: SNB-19
[20] = system: SF-539
[21] = system: BT-549
[22] = system: UO-31
[23] = system: CAKI-1
[24] = system: M14
[25] = system: SN12C
[26] = system: DU-145
[27] = system: U-251
[28] = system: ACHN
[29] = system: UACC-257
[30] = system: LOX IMVI
[31] = system: SF-295
[32] = system: A498
[33] = system: SK-OV-3
[34] = system: SK-MEL-28
[35] = system: IGROV-1
[36] = system: 786-0
[37] = system: SK-MEL-5
[38] = system: K562
[39] = system: SR
[40] = system: MDA-MB-231
[41] = system: HCC 2998
[42] = system: OVCAR-8
[43] = system: MDA-N
[44] = system: CCRF-CEM
[45] = system: TK-10
[46] = system: NCI-H23
[47] = system: MCF7
[48] = system: NCI/ADR-RES
[49] = system: EKVX
[50] = system: COLO 205
[51] = system: OVCAR-5
[52] = system: SNB-75
[53] = system: RXF 393
[54] = system: NCI-H460
[55] = system: SF-268

## COc1ccc(CCN2C(=O)CC34C=CC(CC3C2=O)O4)cc1OC (stereo not drawn)
[1]
  GI50: > 100 µM (inactive)
[2]
  GI50: > 100 µM (inactive)
[3]
  GI50: > 100 µM (inactive)
[4]
  GI50: > 100 µM (inactive)
[5]
  GI50: > 100 µM (inactive)
[6]
  GI50: > 100 µM (inactive)
[7]
  GI50: 97.5 µM (inactive)
[8]
  GI50: > 100 µM (inactive)
[9]
  GI50: > 100 µM (inactive)
[10]
  GI50: > 100 µM (inactive)
[11]
  GI50: > 100 µM (inactive)
[12]
  GI50: > 100 µM (inactive)
[13]
  GI50: > 100 µM (inactive)
[14]
  GI50: > 100 µM (inactive)
[15]
  GI50: > 100 µM (inactive)
[16]
  GI50: > 100 µM (inactive)
[17]
  GI50: > 100 µM
[18]
  GI50: > 100 µM (inactive)
[19]
  GI50: > 100 µM (inactive)
[20]
  GI50: > 100 µM (inactive)
[21]
  GI50: > 100 µM (inactive)
[22]
  GI50: > 100 µM (inactive)
[23]
  GI50: > 100 µM (inactive)
[24]
  GI50: > 100 µM (inactive)
[25]
  GI50: > 100 µM (inactive)
[26]
  GI50: > 100 µM (inactive)
[27]
  GI50: > 100 µM (inactive)
[28]
  GI50: > 100 µM (inactive)
[29]
  GI50: > 100 µM (inactive)
[30]
  GI50: > 100 µM (inactive)
[31]
  GI50: > 100 µM (inactive)
[32]
  GI50: > 100 µM (inactive)
[33]
  GI50: > 100 µM (inactive)
[34]
  GI50: > 100 µM (inactive)
[35]
  GI50: > 100 µM (inactive)
[36]
  GI50: > 100 µM (inactive)
[37]
  GI50: > 100 µM (inactive)
[38]
  GI50: > 100 µM (inactive)
[39]
  GI50: > 100 µM (inactive)
[40]
  GI50: > 100 µM (inactive)
[41]
  GI50: > 100 µM (inactive)
[42]
  GI50: > 100 µM (inactive)
[43]
  GI50: > 100 µM (inactive)
[44]
  GI50: > 100 µM (inactive)
[45]
  GI50: > 100 µM (inactive)
[46]
  GI50: > 100 µM (inactive)
[47]
  GI50: > 100 µM (inactive)
[48]
  GI50: > 100 µM (inactive)
[49]
  GI50: > 100 µM (inactive)
[50]
  GI50: > 100 µM (inactive)
[51]
  GI50: > 100 µM (inactive)

## CCCCN(CCCC)c1ccc(/N=N/c2ccc(S(=O)(=O)O)cc2)cc1
[52]
  GI50: 11.7 µM (inactive)
[1]
  GI50: 17.7 µM (inactive)
[2]
  GI50: 26.4 µM (inactive)
[53]
  GI50: 14.4 µM (inactive)
[3]
  GI50: 17.8 µM (inactive)
[4]
  GI50: 51.1 µM (inactive)
[5]
  GI50: 19.8 µM (inactive)
[54]
  GI50: 34 µM (inactive)
[6]
  GI50: 33 µM (inactive)
[7]
  GI50: 7 µM (inactive)
[9]
  GI50: 12.8 µM (inactive)
[10]
  GI50: 25.8 µM (inactive)
[11]
  GI50: > 100 µM (inactive)
[12]
  GI50: 20.4 µM (inactive)
[13]
  GI50: 30.1 µM (inactive)
[14]
  GI50: 25.5 µM (inactive)
[15]
  GI50: 39.8 µM (inactive)
[16]
  GI50: 15.6 µM (inactive)
[17]
  GI50: 17.2 µM
[18]
  GI50: 57.9 µM (inactive)
[19]
  GI50: 75.9 µM (inactive)
[55]
  GI50: > 100 µM (inactive)
[20]
  GI50: 16.7 µM (inactive)
[21]
  GI50: 35.2 µM (inactive)
[22]
  GI50: 72.3 µM (inactive)
[23]
  GI50: 20.2 µM (inactive)
[24]
  GI50: > 100 µM (inactive)
[25]
  GI50: 25.4 µM (inactive)
[26]
  GI50: 39.2 µM (inactive)
[27]
  GI50: 32.3 µM (inactive)
[28]
  GI50: 46.7 µM (inactive)
[29]
  GI50: 94.4 µM (inactive)
[30]
  GI50: 18.9 µM (inactive)
[31]
  GI50: 40.9 µM (inactive)
[32]
  GI50: 31.4 µM (inactive)
[33]
  GI50: 25.5 µM (inactive)
[34]
  GI50: 81.3 µM (inactive)
[35]
  GI50: 14.7 µM (inactive)
[37]
  GI50: 16.2 µM (inactive)
[38]
  GI50: 26.9 µM (inactive)
[40]
  GI50: 25.4 µM (inactive)
[41]
  GI50: 24 µM (inactive)
[42]
  GI50: 22 µM (inactive)
[43]
  GI50: 52.2 µM (inactive)
[44]
  GI50: 18.4 µM (inactive)
[45]
  GI50: 67.8 µM (inactive)
[46]
  GI50: 20.6 µM (inactive)
[47]
  GI50: 21.9 µM (inactive)
[48]
  GI50: 24.4 µM (inactive)
[49]
  GI50: 39.1 µM (inactive)
[50]
  GI50: 18.7 µM (inactive)
[51]
  GI50: 60.8 µM (inactive)
